# Laboratory results as given in ChEMBL document CHEMBL1201862, “PubChem BioAssay data set” (2004).
#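 Briefly, cells in 96-well plates were exposed to five compound concentrations for 48 h, and endpoints were estimated by linear interpolation. Abbreviation: GI50, concentration required for 50% inhibition of growth.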 Active and inactive are the calls of the source. Rule as the data show it: active = GI50 up to about 1.1 µM and inactive = higher.
# Experiments:
# Assay in all cases: DTP human tumour cell line panel, 48 h
# [1] = test system: 786-0
# [2] = test system: A498
# [3] = test system: A549
# [4] = test system: ACHN
# [5] = test system: BT-549
# [6] = test system: CAKI-1
# [7] = test system: CCRF-CEM
# [8] = test system: COLO 205
# [9] = test system: DU-145
# [10] = test system: EKVX
# [11] = test system: HCC 2998
# [12] = test system: HCT-116
# [13] = test system: HCT-15
# [14] = test system: HL-60
# [15] = test system: HOP-62
# [16] = test system: HOP-92
# [17] = test system: HT-29
# [18] = test system: Hs-578T
# [19] = test system: IGROV-1
# [20] = test system: K562
# [21] = test system: KM12
# [22] = test system: LOX IMVI
# [23] = test system: M14
# [24] = test system: MCF7
# [25] = test system: MDA-MB-231
# [26] = test system: MDA-MB-435
# [27] = test system: MDA-N
# [28] = test system: MOLT-4
# [29] = test system: Malme-3M
# [30] = test system: NCI-H226
# [31] = test system: NCI-H23
# [32] = test system: NCI-H460
# [33] = test system: NCI-H522
# [34] = test system: NCI/ADR-RES
# [35] = test system: OVCAR-3
# [36] = test system: OVCAR-4
# [37] = test system: OVCAR-5
# [38] = test system: OVCAR-8
# [39] = test system: PC-3
# [40] = test system: RPMI-8226
# [41] = test system: RXF 393
# [42] = test system: SF-268
# [43] = test system: SF-295
# [44] = test system: SF-539
# [45] = test system: SK-MEL-28
# [46] = test system: SK-MEL-2
# [47] = test system: SK-MEL-5
# [48] = test system: SK-OV-3
# [49] = test system: SN12C
# [50] = test system: SNB-19
# [51] = test system: SNB-75
# [52] = test system: SR
# [53] = test system: SW-620
# [54] = test system: T47D
# [55] = test system: TK-10
# [56] = test system: U-251
# [57] = test system: UACC-257
# [58] = test system: UACC-62
# [59] = test system: UO-31
# [60] = test system: DLD-1
# [61] = test system: DMS-114
# [62] = test system: KM-20L2
# [63] = test system: LXFL 529
# [64] = test system: M19-MEL
# [65] = test system: SNB-78
structure (smiles),measurement,setting,value
CN(C)P(=O)(Oc1ccc(CC(NC(=O)OCc2ccccc2)C(=O)OCc2ccccc2)cc1)N(C)C (centres undefined),GI50,[1],4.94 µM (inactive)
same,GI50,[2],19.4 µM (inactive)
same,GI50,[3],19.2 µM (inactive)
same,GI50,[4],18.5 µM (inactive)
same,GI50,[5],17.1 µM (inactive)
same,GI50,[6],17.6 µM (inactive)
same,GI50,[7],2.43 µM (inactive)
same,GI50,[8],20.9 µM (inactive)
same,GI50,[9],15.7 µM (inactive)
same,GI50,[10],15.7 µM (inactive)
same,GI50,[11],18.3 µM (inactive)
same,GI50,[12],15.9 µM (inactive)
same,GI50,[13],17.4 µM
same,GI50,[14],13.2 µM (inactive)
same,GI50,[15],17.1 µM (inactive)
same,GI50,[16],17.8 µM (inactive)
same,GI50,[17],10.1 µM (inactive)
same,GI50,[18],24.4 µM (inactive)
same,GI50,[19],17.2 µM (inactive)
same,GI50,[20],22.7 µM (inactive)
same,GI50,[21],20 µM (inactive)
same,GI50,[22],16 µM (inactive)
same,GI50,[23],13.4 µM (inactive)
same,GI50,[24],12.4 µM (inactive)
same,GI50,[25],17.5 µM (inactive)
same,GI50,[26],12.2 µM (inactive)
same,GI50,[27],16.8 µM (inactive)
same,GI50,[28],3.35 µM (inactive)
same,GI50,[29],17.3 µM (inactive)
same,GI50,[30],26.4 µM (inactive)
same,GI50,[31],14.1 µM (inactive)
same,GI50,[32],21 µM (inactive)
same,GI50,[33],13.9 µM (inactive)
same,GI50,[34],17.9 µM (inactive)
same,GI50,[35],3.43 µM (inactive)
same,GI50,[36],20.7 µM (inactive)
same,GI50,[37],20 µM (inactive)
same,GI50,[38],15.9 µM (inactive)
same,GI50,[39],15.2 µM (inactive)
same,GI50,[40],2.77 µM (inactive)
same,GI50,[41],17.5 µM (inactive)
same,GI50,[42],13.4 µM (inactive)
same,GI50,[43],18.2 µM (inactive)
same,GI50,[44],22.3 µM (inactive)
same,GI50,[45],16.8 µM (inactive)
same,GI50,[46],15.6 µM (inactive)
same,GI50,[47],20.7 µM (inactive)
same,GI50,[48],17.8 µM (inactive)
same,GI50,[49],15.1 µM (inactive)
same,GI50,[50],20 µM (inactive)
same,GI50,[51],17.2 µM (inactive)
same,GI50,[52],4.56 µM (inactive)
same,GI50,[53],18.2 µM (inactive)
same,GI50,[54],21 µM (inactive)
same,GI50,[55],21.7 µM (inactive)
same,GI50,[56],13.8 µM (inactive)
same,GI50,[57],21.4 µM (inactive)
same,GI50,[58],15.2 µM (inactive)
same,GI50,[59],18.5 µM (inactive)
CC1=C(C(=O)Nc2cccc(Cl)c2)C(c2ccccc2O)C(C(=O)Nc2cccc(Cl)c2)=C(C)N1,GI50,[1],15.7 µM (inactive)
same,GI50,[2],19.5 µM (inactive)
same,GI50,[3],20.2 µM (inactive)
same,GI50,[4],23.7 µM (inactive)
same,GI50,[6],22 µM (inactive)
same,GI50,[7],22.3 µM (inactive)
same,GI50,[8],20 µM (inactive)
same,GI50,[60],18.4 µM (inactive)
same,GI50,[61],22.4 µM (inactive)
same,GI50,[10],22.4 µM (inactive)
same,GI50,[11],18.9 µM (inactive)
same,GI50,[14],21 µM (inactive)
same,GI50,[15],19.3 µM (inactive)
same,GI50,[16],20.1 µM (inactive)
same,GI50,[17],18.8 µM (inactive)
same,GI50,[19],23.9 µM (inactive)
same,GI50,[20],22.4 µM (inactive)
same,GI50,[62],18.4 µM (inactive)
same,GI50,[21],16.8 µM (inactive)
same,GI50,[22],21.8 µM (inactive)
same,GI50,[63],21.8 µM (inactive)
same,GI50,[23],17.4 µM (inactive)
same,GI50,[64],19.4 µM (inactive)
same,GI50,[28],25.2 µM (inactive)
same,GI50,[29],19.4 µM (inactive)
same,GI50,[30],17.7 µM (inactive)
same,GI50,[31],17.3 µM (inactive)
same,GI50,[32],21.6 µM (inactive)
same,GI50,[33],17.1 µM (inactive)
same,GI50,[35],20.6 µM (inactive)
same,GI50,[36],18.3 µM (inactive)
same,GI50,[37],19.4 µM (inactive)
same,GI50,[38],25.2 µM (inactive)
same,GI50,[40],20.7 µM (inactive)
same,GI50,[41],17.2 µM (inactive)
same,GI50,[42],17.7 µM (inactive)
same,GI50,[43],22.1 µM (inactive)
same,GI50,[44],16.7 µM (inactive)
same,GI50,[45],17.1 µM (inactive)
same,GI50,[46],16.1 µM (inactive)
same,GI50,[47],17.4 µM (inactive)
same,GI50,[48],24.3 µM (inactive)
same,GI50,[49],21.8 µM (inactive)
same,GI50,[50],26.1 µM (inactive)
same,GI50,[51],14.9 µM (inactive)
same,GI50,[65],24.5 µM (inactive)
same,GI50,[53],18.6 µM (inactive)
same,GI50,[55],18.9 µM (inactive)
same,GI50,[56],19.9 µM (inactive)
same,GI50,[57],20.2 µM (inactive)
same,GI50,[59],17.2 µM (inactive)
C=C1C(=O)O[C@@H]2C[C@]3(C)CC[C@]4(C)[C@H](CC[C@@H]5[C@@]6(C)CCC(=O)C(C)(C)[C@@H]6CC[C@]54C)[C@H]3[C@H]12 [OCHRACEOLIDE A],GI50,[1],13.7 µM (inactive)
same,GI50,[2],21 µM (inactive)
same,GI50,[3],22.2 µM (inactive)
same,GI50,[4],11.9 µM (inactive)
same,GI50,[5],16.1 µM (inactive)
same,GI50,[6],13.1 µM (inactive)
same,GI50,[7],2.43 µM (inactive)
same,GI50,[8],7.19 µM (inactive)
same,GI50,[9],17.9 µM (inactive)
same,GI50,[10],19 µM (inactive)
same,GI50,[11],19.2 µM (inactive)
same,GI50,[12],13.6 µM (inactive)
same,GI50,[13],12.5 µM
same,GI50,[14],1.63 µM (inactive)
same,GI50,[15],23.5 µM (inactive)
same,GI50,[16],9.31 µM (inactive)
same,GI50,[17],20.6 µM (inactive)
same,GI50,[18],31.6 µM (inactive)
same,GI50,[19],18.7 µM (inactive)
same,GI50,[20],4.45 µM (inactive)
same,GI50,[21],19.2 µM (inactive)
same,GI50,[22],15.2 µM (inactive)
same,GI50,[23],14.6 µM (inactive)
same,GI50,[24],4.81 µM (inactive)
same,GI50,[25],24.7 µM (inactive)
same,GI50,[26],11.2 µM (inactive)
same,GI50,[27],15.3 µM (inactive)
same,GI50,[28],2.31 µM (inactive)
same,GI50,[29],15.8 µM (inactive)
same,GI50,[30],20 µM (inactive)
same,GI50,[31],23.7 µM (inactive)
same,GI50,[32],18.5 µM (inactive)
same,GI50,[33],7.33 µM (inactive)
same,GI50,[34],22.2 µM (inactive)
same,GI50,[35],17.3 µM (inactive)
same,GI50,[36],18.3 µM (inactive)
same,GI50,[37],18.4 µM (inactive)
same,GI50,[38],13.7 µM (inactive)
same,GI50,[39],14.7 µM (inactive)
same,GI50,[40],2.1 µM (inactive)
same,GI50,[41],16.6 µM (inactive)
same,GI50,[42],22.2 µM (inactive)
same,GI50,[43],17.8 µM (inactive)
same,GI50,[44],21.7 µM (inactive)
same,GI50,[45],18.9 µM (inactive)
same,GI50,[46],22.4 µM (inactive)
same,GI50,[47],12.5 µM (inactive)
same,GI50,[48],24 µM (inactive)
same,GI50,[49],17.5 µM (inactive)
same,GI50,[50],26.9 µM (inactive)
same,GI50,[51],20.7 µM (inactive)
same,GI50,[52],14.9 µM (inactive)
same,GI50,[53],11.6 µM (inactive)
same,GI50,[54],10.6 µM (inactive)
same,GI50,[55],16 µM (inactive)
same,GI50,[56],19 µM (inactive)
same,GI50,[57],14.6 µM (inactive)
same,GI50,[58],16.9 µM (inactive)
same,GI50,[59],14.8 µM (inactive)
